Experiments:
Assay type in all cases: biochemical
[1] = biological target: JAK2 (Homo sapiens, UniProt O60674); assay: Inhibition of JAK kinase activity, EZ Reader microfluidic phosphorylation of peptide substrate: JAK2; details: JAK2 kinase 1 nM; highest final concentration 10 μM, 1:3 serial dilution, 8 points, duplicates
Description: (§1) EZ Reader available from PerkinElmer can be used for detecting the phosphorylation of polypeptide substrates catalyzed by kinases. This device is based on microfluidic separation technology, and can directly detect fluorescence labeled substrates and products. The separation step is achieved in a microfluidic chip by controlling the pressure and electric field intensity. In a kinase experiment, the product conversion rate is generally controlled at 20-30%. This biological assay method is used for identifying the inhibitory effect of the compounds on JAK.
(§2) The compound powder was dissolved in DMSO, sealed and stored in a refrigerator at −20° C. The in-house compound Ref1 was used as a positive control for testing of JAK1, JAK2 and Tyk2, and Ref2 was used as a positive control for testing of JAK3.
(§3) • S2.1. 1M HEPES buffer: 0.5M HEPES free acid and 0.5M HEPES sodium salt are weighed, added into ultrapure water for dissolution, brought to a desired volume, filtered and stored in a refrigerator at 4° C. • S2.2. 40 mM ATP solution: dissolved in a 50 mM HEPES buffer solution, prepared into 40 mM, aliquoted, and cryopreserved in a refrigerator at −20° C. • S2.3. 0.5% Tween 20: 100% Tween 20 was diluted with ultrapure water, and stored in a refrigerator at 4° C. • S2.4. 35% bovine serum albumin: a 35% bovine serum albumin solution is prepared in ultrapure water, aliquoted, and stored in a refrigerator at −20° C. • S2.5. 1M dithiothreitol solution: dithiothreitol is formulated into a 1M solution with ultrapure water, aliquoted, and stored in a refrigerator at −20° C. • S2.6. 0.5 mM Jaktide Peptide substrate solution: it is dissolved in 50 mM HEPES to 0.5 mM, aliquoted, and stored in a refrigerator at −20° C. • S2.7. 0.5 mM IRStide Peptide substrate solution: it is dissolved in 50 mM HEPES to 0.5 mM, aliquoted, and stored in a refrigerator at −20° C. • S2.8. Assay Buffer: 20 mM HEPES buffer, pH 7.4, 10 mM magnesium chloride, 0.01% bovine serum albumin BSA, 0.0005% Tween-20, and a 1 mM dithiothreitol solution. • S2.9. Stop Buffer: 180 mM HEPES buffer, 20 mM ethylenediamine tetraacetic acid (EDTA), and 0.2% Coating Reagent 3. • S2.10. Separation Buffer: 100 mM HEPES buffer, 10 mM EDTA, 0.0005% Tween 20, 0.1% Coating Reagent 3, and 1% dimethyl sulfoxide. 3. Experimental Procedures • S3.1. Preparation of compound plate
(§4) The compound is dissolved in dimethyl sulfoxide to 10 mM, a certain volume is taken and diluted to 0.6 mM, 10 μl of the diluted 0.6 mM solution is taken and added into a 384 microplate or 1:3 serial dilution, with a total of 8 concentration points. • S3.2. Compound layout
(§5) • positive control (HPE1): Ref1, final concentration: 10 μM • positive control (HPE1): Ref2, final concentration: 10 μM • negative control (ZPE): DMSO, with a final concentration of 1.6% • Compound: the highest final concentration at 10 μM, 1:3 serial dilution, with 8 concentration points and in duplicates. 4. Experimental operation steps • S4.1. the experimental plate was added with 250 nl of the compound per well with ECHO, and centrifuged at 1,000 rpm for 1 minute; • S4.2. the precipitate was added with 5 μl of the experimental buffer, and shaken for several seconds to fully dissolve the compound; • S4.3. the solution was added with 5 μl of a 3× substrate solution, as well as 5 μl of a 3× kinase solution, and centrifuged at 800 rpm for 1 minute; • S4.4. The final concentrations of JAK1, JAK2, JAK3 and Tyk2 kinases in the reaction system are 20, 1, 1 and 1 nM, respectively. • S4.5. the reaction system is incubated at room temperature, wherein the incubation time of each kinase is different, and there are differences in incubation time of different batches of kinases. • S4.6. When the reaction reaches 20%-30%, the reaction system is added with 15 μl of the stop buffer to terminate the reaction, and centrifuged at 1,000 rpm for 2 minutes. • S4.7. The precipitate was placed onto a EZ Reader for plate reading. • S4.8. […]

[2] = biological target: T1, JAK3 (Homo sapiens, UniProt P52333); assay: Inhibition of JAK kinase activity, EZ Reader microfluidic phosphorylation of peptide substrate: JAK3; details: JAK3 kinase 1 nM; highest final concentration 10 μM, 1:3 serial dilution, 8 points, duplicates
T1 sequence (P52333 1-1124): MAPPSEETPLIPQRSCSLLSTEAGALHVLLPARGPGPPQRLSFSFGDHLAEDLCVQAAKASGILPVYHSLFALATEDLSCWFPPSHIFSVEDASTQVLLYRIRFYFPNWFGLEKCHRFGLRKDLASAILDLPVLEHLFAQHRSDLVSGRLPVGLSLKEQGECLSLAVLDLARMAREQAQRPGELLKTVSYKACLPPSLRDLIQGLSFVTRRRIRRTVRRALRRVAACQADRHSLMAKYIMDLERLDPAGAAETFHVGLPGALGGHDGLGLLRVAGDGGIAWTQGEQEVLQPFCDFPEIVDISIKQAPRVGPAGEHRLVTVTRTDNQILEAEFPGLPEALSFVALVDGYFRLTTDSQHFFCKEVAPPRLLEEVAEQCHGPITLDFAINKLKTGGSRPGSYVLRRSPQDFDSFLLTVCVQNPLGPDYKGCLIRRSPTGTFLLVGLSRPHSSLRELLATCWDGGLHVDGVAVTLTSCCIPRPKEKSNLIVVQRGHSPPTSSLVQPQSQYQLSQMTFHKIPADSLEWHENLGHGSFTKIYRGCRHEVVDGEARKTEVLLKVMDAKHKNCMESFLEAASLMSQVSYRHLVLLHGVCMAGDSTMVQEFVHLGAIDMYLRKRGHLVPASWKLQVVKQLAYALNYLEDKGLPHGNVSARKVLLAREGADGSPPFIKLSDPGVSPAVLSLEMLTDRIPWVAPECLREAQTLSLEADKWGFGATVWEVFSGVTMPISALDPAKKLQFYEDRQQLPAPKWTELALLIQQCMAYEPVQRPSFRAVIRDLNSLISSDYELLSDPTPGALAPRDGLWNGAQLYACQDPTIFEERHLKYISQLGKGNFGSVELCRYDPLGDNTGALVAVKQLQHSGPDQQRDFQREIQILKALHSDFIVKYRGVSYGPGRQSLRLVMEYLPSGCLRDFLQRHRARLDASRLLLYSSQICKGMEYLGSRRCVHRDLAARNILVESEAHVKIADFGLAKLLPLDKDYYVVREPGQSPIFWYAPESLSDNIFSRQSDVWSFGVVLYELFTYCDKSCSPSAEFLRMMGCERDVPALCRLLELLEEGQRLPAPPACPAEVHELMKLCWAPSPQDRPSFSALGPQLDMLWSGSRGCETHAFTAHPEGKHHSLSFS
Description: as §1, §2, §3, §4, §5

[3] = biological target: JAK1 (Homo sapiens, UniProt P23458); assay: Inhibition of JAK kinase activity, EZ Reader microfluidic phosphorylation of peptide substrate: JAK1; details: JAK1 kinase 20 nM; highest final concentration 10 μM, 1:3 serial dilution, 8 points, duplicates
Sequence of JAK1 (P23458 whole entry): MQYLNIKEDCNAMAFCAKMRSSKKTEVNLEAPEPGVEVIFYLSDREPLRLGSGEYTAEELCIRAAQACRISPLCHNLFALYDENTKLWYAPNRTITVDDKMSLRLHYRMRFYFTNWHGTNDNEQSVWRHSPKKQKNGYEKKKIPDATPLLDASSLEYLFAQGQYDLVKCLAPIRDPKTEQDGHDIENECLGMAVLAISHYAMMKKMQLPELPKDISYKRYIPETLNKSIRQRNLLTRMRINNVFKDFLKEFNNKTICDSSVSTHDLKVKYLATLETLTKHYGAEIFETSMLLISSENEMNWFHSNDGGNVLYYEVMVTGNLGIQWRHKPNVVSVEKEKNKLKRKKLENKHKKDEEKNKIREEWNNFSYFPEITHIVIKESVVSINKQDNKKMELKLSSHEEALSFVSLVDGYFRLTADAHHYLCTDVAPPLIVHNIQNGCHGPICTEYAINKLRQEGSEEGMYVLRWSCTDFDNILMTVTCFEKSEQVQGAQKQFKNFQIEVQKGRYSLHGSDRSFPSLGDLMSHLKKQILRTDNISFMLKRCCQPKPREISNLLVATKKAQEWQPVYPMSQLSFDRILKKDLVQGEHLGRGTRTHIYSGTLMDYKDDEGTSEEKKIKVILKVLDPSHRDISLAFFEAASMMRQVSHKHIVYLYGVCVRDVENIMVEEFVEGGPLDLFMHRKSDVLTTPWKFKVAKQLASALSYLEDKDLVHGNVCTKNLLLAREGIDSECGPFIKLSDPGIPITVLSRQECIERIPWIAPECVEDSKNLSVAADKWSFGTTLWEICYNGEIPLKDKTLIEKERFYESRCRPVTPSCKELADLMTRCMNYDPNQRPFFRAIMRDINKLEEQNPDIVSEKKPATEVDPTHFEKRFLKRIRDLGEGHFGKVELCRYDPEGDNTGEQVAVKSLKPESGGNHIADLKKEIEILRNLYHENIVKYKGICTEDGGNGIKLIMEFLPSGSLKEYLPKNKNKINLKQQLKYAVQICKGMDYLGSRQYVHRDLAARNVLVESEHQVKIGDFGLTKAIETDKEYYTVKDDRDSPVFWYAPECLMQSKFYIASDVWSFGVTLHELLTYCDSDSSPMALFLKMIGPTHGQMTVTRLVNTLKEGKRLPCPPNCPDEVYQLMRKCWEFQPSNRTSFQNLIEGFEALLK
Description: as §1, §2, §3, §4, §5

[4] = biological target: Tyk2 (Homo sapiens, UniProt P29597); assay: Inhibition of JAK kinase activity, EZ Reader microfluidic phosphorylation of peptide substrate: Tyk2; details: Tyk2 kinase 1 nM; highest final concentration 10 μM, 1:3 serial dilution, 8 points, duplicates
Sequence of Tyk2 (P29597 whole entry): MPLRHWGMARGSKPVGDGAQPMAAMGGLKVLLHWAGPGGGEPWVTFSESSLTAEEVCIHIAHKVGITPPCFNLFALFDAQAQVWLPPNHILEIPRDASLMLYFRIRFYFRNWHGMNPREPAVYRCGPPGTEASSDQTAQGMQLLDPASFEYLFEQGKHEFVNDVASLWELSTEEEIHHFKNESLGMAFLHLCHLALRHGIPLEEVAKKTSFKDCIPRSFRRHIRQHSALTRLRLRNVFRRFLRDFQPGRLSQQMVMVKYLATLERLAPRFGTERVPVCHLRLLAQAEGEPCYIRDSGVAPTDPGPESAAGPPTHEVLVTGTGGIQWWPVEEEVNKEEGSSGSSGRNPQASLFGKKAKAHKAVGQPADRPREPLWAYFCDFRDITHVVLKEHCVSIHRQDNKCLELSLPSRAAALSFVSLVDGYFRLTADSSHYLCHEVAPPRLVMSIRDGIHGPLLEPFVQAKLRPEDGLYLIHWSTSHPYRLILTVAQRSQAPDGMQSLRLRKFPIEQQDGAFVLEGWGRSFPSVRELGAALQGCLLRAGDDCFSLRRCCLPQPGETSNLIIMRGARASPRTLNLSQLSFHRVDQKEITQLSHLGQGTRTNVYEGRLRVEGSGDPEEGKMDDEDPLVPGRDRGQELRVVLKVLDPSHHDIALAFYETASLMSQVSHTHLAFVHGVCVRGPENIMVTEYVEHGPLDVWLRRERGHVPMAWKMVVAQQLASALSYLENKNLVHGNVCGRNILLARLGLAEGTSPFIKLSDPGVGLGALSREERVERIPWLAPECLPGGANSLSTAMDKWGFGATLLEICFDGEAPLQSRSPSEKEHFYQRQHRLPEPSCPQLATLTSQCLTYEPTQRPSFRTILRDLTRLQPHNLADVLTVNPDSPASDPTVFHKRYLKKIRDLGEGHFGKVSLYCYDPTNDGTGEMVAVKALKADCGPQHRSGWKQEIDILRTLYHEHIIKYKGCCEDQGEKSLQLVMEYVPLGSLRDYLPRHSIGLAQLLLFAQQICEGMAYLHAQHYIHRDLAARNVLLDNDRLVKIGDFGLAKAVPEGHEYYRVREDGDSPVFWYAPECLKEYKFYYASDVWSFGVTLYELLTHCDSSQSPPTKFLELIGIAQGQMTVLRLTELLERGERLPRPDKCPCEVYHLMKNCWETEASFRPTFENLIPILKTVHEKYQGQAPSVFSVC
Description: as §1, §2, §3, §4, §5

Sequence of JAK2 (O60674 whole entry): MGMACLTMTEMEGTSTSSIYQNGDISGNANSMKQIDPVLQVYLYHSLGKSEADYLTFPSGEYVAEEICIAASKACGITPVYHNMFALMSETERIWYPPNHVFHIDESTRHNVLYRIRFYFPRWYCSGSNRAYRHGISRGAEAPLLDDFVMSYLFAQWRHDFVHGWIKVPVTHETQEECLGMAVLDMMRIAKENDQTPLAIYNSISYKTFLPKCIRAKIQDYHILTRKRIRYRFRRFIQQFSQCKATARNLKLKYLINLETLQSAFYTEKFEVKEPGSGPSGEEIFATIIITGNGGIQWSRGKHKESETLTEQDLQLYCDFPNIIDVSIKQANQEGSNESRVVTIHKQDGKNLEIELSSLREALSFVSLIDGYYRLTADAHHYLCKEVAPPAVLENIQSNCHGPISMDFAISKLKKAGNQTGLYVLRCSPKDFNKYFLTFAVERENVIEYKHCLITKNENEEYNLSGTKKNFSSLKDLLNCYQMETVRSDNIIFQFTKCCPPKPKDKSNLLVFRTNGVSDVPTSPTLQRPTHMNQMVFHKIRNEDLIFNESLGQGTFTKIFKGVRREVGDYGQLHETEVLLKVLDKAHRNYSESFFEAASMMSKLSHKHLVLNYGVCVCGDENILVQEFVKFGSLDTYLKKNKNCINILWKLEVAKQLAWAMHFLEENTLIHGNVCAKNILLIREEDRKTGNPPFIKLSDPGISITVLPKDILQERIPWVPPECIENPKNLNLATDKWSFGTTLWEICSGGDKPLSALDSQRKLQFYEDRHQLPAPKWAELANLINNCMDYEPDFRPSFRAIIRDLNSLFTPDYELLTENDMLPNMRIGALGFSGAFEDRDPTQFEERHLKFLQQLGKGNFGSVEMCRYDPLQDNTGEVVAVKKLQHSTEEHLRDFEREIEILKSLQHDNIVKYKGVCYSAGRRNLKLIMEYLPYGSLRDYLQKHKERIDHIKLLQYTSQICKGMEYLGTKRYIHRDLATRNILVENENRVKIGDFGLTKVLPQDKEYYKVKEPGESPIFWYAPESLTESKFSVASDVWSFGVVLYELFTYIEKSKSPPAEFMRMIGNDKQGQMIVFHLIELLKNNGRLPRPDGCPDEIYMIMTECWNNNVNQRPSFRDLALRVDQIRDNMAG

IC50 [1] | IC50 [2] | IC50 [3] | IC50 [4] | Compound
1 to 10 µM | ≥ 10 µM | ≥ 10 µM | 1 to 10 µM | Cn1cc(Nc2nccc(-c3cnn(C4CCN(C(=O)C5CC5(F)F)C4)c3)n2)cn1 (centres unmarked) [TDM-180654, (2,2-difluorocyclopropyl)(3-(4-(2-((1-methyl-1H-pyrazol-4-yl)amino)pyrimidin-4-yl)-1H-pyrazol-1-yl)pyrrolidin-1-yl)ketone]
1 to 10 µM | ≥ 10 µM | ≥ 10 µM | 1 to 10 µM | CCS(=O)(=O)N1CCC(n2cc(-c3ccnc(Nc4cnn(C)c4)n3)cn2)CC1 [TDM-180674, 4-(1-(1-(ethylsulfonyl)piperidin-4-yl)-1H-pyrazol-4-yl)-N-(1-methyl-1H-pyrazol-4-yl)pyrimidin-2-amine]
0.1 to 1 µM | 1 to 10 µM | 0.1 to 1 µM | 0.1 to 1 µM | Cn1cc(Nc2nccc(-c3cnn(C4(CC#N)CN(S(=O)(=O)CCC(F)(F)F)C4)c3)n2)cn1 [TDM-180808, 2-(3-(4-(2-((1-methyl-1H-pyrazol-4-yl)amino)pyrimidin-4-yl)-1H-pyrazol-1-yl)-1-((3,3,3-trifluoropropyl)sulfonyl)azetidin-3-yl)acetonitrile]
0.1 to 1 µM | ≥ 10 µM | 0.1 to 1 µM | 0.1 to 1 µM | Cn1cc(Nc2nccc(-c3ccn(C4(CC#N)CN(C(=O)CC#N)C4)c3)n2)cn1 [TDM-180775, 3-(3-(cyanomethyl)-3-(3-(2-((1-methyl-1H-pyrazol-4-yl)amino)pyrimidin-4-yl)-1H-pyrrol-1-yl)azetidinpiperazin-1-yl)-3-oxypropionitrile]
0.1 to 1 µM | ≥ 10 µM | 1 to 10 µM | 1 to 10 µM | CC(=O)N1CCN(c2ccc(-c3ccnc(Nc4cnn(C)c4)n3)cc2)CC1 [TDM-180827, 1-(4-(4-(2-((1-methyl-1H-pyrazol-4-yl)amino)pyrimidin-4-yl)phenyl)piperazin-1-yl)ethan-1-one]
0.1 to 1 µM | 1 to 10 µM | 0.1 to 1 µM | < 0.1 µM | Cn1cc(Nc2nccc(-c3ccn(C4(CC#N)CN(S(=O)(=O)C5CC5)C4)c3)n2)cn1 [TDM-180770, 2-(1-(cyclopropylsulfonyl)-3-(3-(2-((1-methyl-1H-pyrazol-4-yl)amino)pyrimidin-4-yl)-1H-pyrrol-1-yl)azetidinpyridin-3-yl)acetonitrile]
≥ 10 µM | ≥ 10 µM | ≥ 10 µM | ≥ 10 µM | CCS(=O)(=O)N1CC(n2cc(-c3ccnc(Nc4cnn(C)c4)c3)cn2)C1 [TDM-180642, 4-(1-(1-(ethylsulfonyl)azetidin-3-yl)-1H-pyrazol-4-yl)-N-(1-methyl-1H-pyrazol-4-yl) pyridine-2-amine]

Further lines, the compound ahead of its results:

Compound | IC50 [1] | IC50 [2] | IC50 [3] | IC50 [4]
CCCS(=O)(=O)N1CC(n2cc(-c3ccnc(Nc4cnn(C)c4)c3)cn2)C1 [TDM-180643, N-(1-methyl-1H-pyrazol-4-yl)-4-(1-(1-(propylsulfonyl)azetidin-3-yl)-1H-pyrazol-4-yl)pyridine-2-amine] | ≥ 10 µM | ≥ 10 µM | ≥ 10 µM | ≥ 10 µM
Cn1cc(Nc2nccc(-c3cnn(C4CN(C(=O)C5CC5)C4)c3)n2)cn1 [TDM-180667, cyclopropyl(3-(4-(2-((1-methyl-1H-pyrazol-4-yl)amino)pyrimidin-4-yl)-1H-pyrazol-1-yl)azetidin-1-yl)ketone] | ≥ 10 µM | ≥ 10 µM | ≥ 10 µM | ≥ 10 µM
C=CCS(=O)(=O)N1CC(CC#N)(n2cc(-c3ccnc(Nc4cnn(C)c4)n3)cn2)C1 [TDM-180800, 2-(1-(allylsulfonyl)-3-(4-(2-((1-methyl-1H-pyrazol-4-yl)amino)pyrimidin-4-yl)-1H-pyrazol-1-yl)azetidin-3-yl)acetonitrile] | 0.1 to 1 µM | 1 to 10 µM | 0.1 to 1 µM | 0.1 to 1 µM
CN1CCN(c2ccc(-c3ccnc(Nc4cnn(C)c4)n3)cc2)CC1 [TDM-180828, N-(1-methyl-1H-pyrazol-4-yl)-4-(4-(4-methylpiperazin-1-yl)phenyl)pyrimidin-2-amine] | 1 to 10 µM | ≥ 10 µM | 1 to 10 µM | 1 to 10 µM
CCC(=O)N1CCC(n2cc(-c3ccnc(Nc4cnn(C)c4)n3)cn2)C1 (centres unmarked) [TDM-180649, 1-(3-(4-(2-((1-methyl-1H-pyrazol-4-yl)amino)pyrimidin-4-yl)-1H-pyrazol-1-yl)pyrrolidin-1-yl)propan-1-one] | ≥ 10 µM | ≥ 10 µM | ≥ 10 µM | ≥ 10 µM
Cn1cc(Nc2nccc(-c3cnn(C4CCN(C(=O)C5CC5)CC4)c3)n2)cn1 [TDM-180673, cyclopropyl(4-(4-(2-((1-methyl-1H-pyrazol-4-yl)amino)pyrimidin-4-yl)-1H-pyrazol-1-yl)piperidin-1-yl)ketone] | ≥ 10 µM | ≥ 10 µM | ≥ 10 µM | ≥ 10 µM
Cn1cc(Nc2nccc(-c3cnn(C4(CC#N)CN(C(=O)CC#N)C4)c3)n2)cn1 [TDM-180727, 3-(3-(cyanomethyl)-3-(4-(2-((1-methyl-1H-pyrazol-4-yl)amino)pyrimidin-4-yl)-1H-pyrazol-1-yl)azetidinpiperazin-1-yl)-3-oxypropionitrile] | 1 to 10 µM | ≥ 10 µM | 0.1 to 1 µM | 0.1 to 1 µM

— patent publication US12509447B2, “Small molecule compound” (Technoderma Medicines Pte Ltd, priority 2019, dated 2025)
